Test results from publication PMC2243256 (Applied Microbiology and Biotechnology, 2008).

Molecular target: T1, PuORh (putrescine oxidase) (Rhodococcus erythropolis, UniProt B0F9F6)
T1 sequence (B0F9F6 1-453): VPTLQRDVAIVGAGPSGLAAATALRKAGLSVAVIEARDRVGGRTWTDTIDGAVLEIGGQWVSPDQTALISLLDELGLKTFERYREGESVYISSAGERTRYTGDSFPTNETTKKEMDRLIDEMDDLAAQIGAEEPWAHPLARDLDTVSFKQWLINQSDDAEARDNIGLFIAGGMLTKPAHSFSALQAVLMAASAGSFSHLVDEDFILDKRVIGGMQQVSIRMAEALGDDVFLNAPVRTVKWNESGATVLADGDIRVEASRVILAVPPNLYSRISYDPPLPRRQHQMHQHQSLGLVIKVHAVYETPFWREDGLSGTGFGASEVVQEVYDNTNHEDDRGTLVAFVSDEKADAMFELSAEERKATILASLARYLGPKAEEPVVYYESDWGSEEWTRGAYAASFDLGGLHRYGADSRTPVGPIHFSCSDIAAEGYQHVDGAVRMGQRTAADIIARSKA
Test: absorbance spectrum, release by trichloroacetic acid and heat
Format: binding
Details: non-covalent; pH 8.0, 25°C for spectra

With `Cc1cc2nc3c(=O)[nH]c(=O)nc-3n(C[C@H](O)[C@H](O)[C@H](O)COP(=O)(O)OP(=O)(O)OC[C@H]3O[C@@H](n4cnc5c(N)ncnc54)[C@H](O)[C@@H]3O)c2cc1C` [FAD] the “absorbance spectrum, release by trichloroacetic acid and heat” value was “the FAD cofactor in PuORh, like in PuOMr, is not covalently bound”.
